Laboratory results as given in patent US6566129B1, “Transformed cells useful for the control of pests” (University of Florida Research Foundation, Inc., priority 1999, dated 2003).
Square brackets hold non-standard residues; d marks the D form. Ends that are not written are not given here. Peptide text beside a SMILES is read from it.

Legend:
Assay type in all cases: in vivo
Aedes aegypti larvae [1] = experiment: Effect of TMOF and its analogue peptides on mosquito larvae (feeding, LD50); conditions: newly hatched larvae on autoclaved yeast 1 mg/ml, microtiter plates, 7 days
Text: TMOF can traverse the gut epithelium, enter the hemolymph and bind a gut receptor (Borovsky, D. and F. Mahmood (1995) “Feeding the mosquito Aedes aegypti with TMOF and its analogs; effect on trypsin biosynthesis and egg development,” Regulatory Peptides57:273-281; Borovsky, et al. (1994) “Characterization and localization of mosquito-gut receptors for trypsin modulating oostatic factor using complementary peptide immunochemistry” FASEB J. 8:350-355.). […] To find out if truncated TMOF peptides have an effect on larval growth and development, a series of peptides were synthesized and tested by feeding them to mosquito larvae at concentrations of 0 to 5.0 mg/ml (Table 3). Individual, newly hatched Aedes aegypti larvae were maintained in separate microtiter wells on a diet of autoclaved yeast (1 mg/ml). The diet was supplemented with TMOF peptides (Table 3). An identical number of larvae maintained on yeast served as a control. […] All control groups survived and larval growth and development was normal. Since larvae swallow only a small portion of the yeast particles that adsorbed the peptides, it is assumed that approximately 1 to 20 ng are taken orally at the high concentrations.

trypsin biosynthesis = experiment: Effect of injected TMOF-R analogues on trypsin biosynthesis in Heliothis virescens (BApNA); conditions: 2nd instar larvae, 24 hours after injection
Protocol: Individual second instar larvae of H. virescens were injected with TMOF-R analogues (10 to 0.25 μg per larva) and maintained in separate plastic cups on artificial diet. Twenty-four hours after the injections 3 groups of larvae (3 per group) were assayed for trypsin biosynthesis using BApNA (trypsin specific substrate; Table 5).

Aedes aegypti larvae [2] = experiment: Effect of feeding TMOF-R analogues on Aedes aegypti larvae (LC50); conditions: fed in microtiter plates with yeast particles for 5 to 6 days; read-out: LC50 (mM ± S.E.M.)
Protocol: TMOF analogues (5 to 8 amino acids in length, and polymers of these analogues) in which Arg was added at the C-terminus were evaluated to determine their effect on larval growth and development. A series of analogues were synthesized and tested by feeding them to mosquito larvae at concentrations of (0.5 to 5.0 mg/ml; Table 4). Concentrations of 2.0 to 0.065 mg/ml were used to feed mosquito larvae and calculate the Lethal Dose at 50% mortality (LD50; Table 4) of the TMOF analogues. […] In both cases larval death and trypsin biosynthesis inhibition was noted (Table 4 and 5). […] The advantage of using short analogues connected by Arg is that they can be digested in the gut into short TMOF analogues that can penetrate the midgut much faster than longer analogues.
Individual, newly hatched Aedes aegypti larvae were maintained in separate microtiter wells on a diet of autoclaved yeast (1 mg/ml). The diet was supplemented with TMOF analogues (Table 4). An identical number of larvae were maintained on yeast served as a control. […] All control groups survived and larval growth and development were normal. Larvae that were fed TMOF analogues had increased mortality, particularly when the larvae where fed the concentrations of the analogues higher than 2 mg/ml (Table 4).
Since larvae swallow only a small portion of the yeast particles that adsorbed the analogues it is assumed that approximately I to 20 ng are taken orally at the high concentrations. Using the various concentrations a lethal concentration that caused 50% mortality (LC50) for the mosquito larvae was calculated (Table 4). The results presented in Table 4 clearly indicate that the short TMOF-R analogues are very effective, especially the (DPAR)4 (SEQ ID NO. 61) polymer that is broken into 4 DPARs (SEQ ID NO. 60) in the gut.

Compound | LD50 mM ± S.E.M. (Aedes aegypti larvae [1]) [mM] | further results
C[C@H](NC(=O)[C@@H]1CCCN1C(=O)[C@H](CC(=O)O)NC(=O)[C@H](N)Cc1ccc(O)cc1)C(=O)N1CCC[C@H]1C(=O)O [(D)YDPAP] (H-[dY]DPAP-OH; N-terminus and C-terminus assumed) | 0.56 ± 0.03 | 
N[C@H](Cc1ccc(O)cc1)C(=O)N[C@@H](CC(=O)O)C(=O)N1CCC[C@H]1C(=O)O [(D)YDP] (H-[dY]-Asp-Pro-OH; N-terminus and C-terminus assumed) | 0.51 ± 0.05 | 
C[C@H](N)C(=O)N[C@@H](C)C(=O)N1CCC[C@H]1C(=O)O [AAP] (H-Ala-Ala-Pro-OH; N-terminus and C-terminus assumed) | 1.08 ± 0.07 | 
C[C@H](N)C(=O)N[C@@H](CC(=O)O)C(=O)N1CCC[C@H]1C(=O)O [ADP] (H-Ala-Asp-Pro-OH; N-terminus and C-terminus assumed) | >6.6 | 
C[C@H](N)C(=O)N1CCC[C@H]1C(=O)N[C@@H](C)C(=O)O [APA] (H-Ala-Pro-Ala-OH; N-terminus and C-terminus assumed) | 1.0 ± 0.07 | 
C[C@H](NC(=O)[C@H](C)NC(=O)[C@@H](N)CC(=O)O)C(=O)O [DAA] (H-Asp-Ala-Ala-OH; N-terminus and C-terminus assumed) | 0.91 ± 0.06 | 
C[C@H](NC(=O)[C@@H]1CCCN1C(=O)[C@@H](N)CC(=O)O)C(=O)N[C@@H](CCCNC(=N)N)C(=O)O [DPAR] (H-DPAR-OH) |  | Inhibition (% ± S.E.M.) of trypsin biosynthesis (trypsin biosynthesis; 1 μg/injection): 17 ± 2%; Inhibition (% ± S.E.M.) of trypsin biosynthesis (trypsin biosynthesis; 10 μg/injection): 100%; LC50 (Aedes aegypti larvae [2]): 0.46 ± 0.014 mM
C[C@H](NC(=O)[C@@H]1CCCN1C(=O)[C@@H](N)CC(=O)O)C(=O)O [DPA] (H-Asp-Pro-Ala-OH) | 0.4 ± 0.03 | 
N[C@@H](CC(=O)O)C(=O)N[C@@H](Cc1ccc(O)cc1)C(=O)N1CCC[C@H]1C(=O)O [DYP] (H-Asp-Tyr-Pro-OH; N-terminus and C-terminus assumed) | 1.27 ± 0.17 | 
N[C@@H](CC(=O)O)C(=O)N[C@@H](Cc1ccc(O)cc1)C(=O)O [DY] (H-Asp-Tyr-OH; N-terminus and C-terminus assumed) | 3.0 ± 0.8 | 
C[C@H](NC(=O)[C@@H](N)Cc1ccccc1)C(=O)N1CCC[C@H]1C(=O)O [FAP] (H-Phe-Ala-Pro-OH; N-terminus and C-terminus assumed) | 3.8 ± 0.23 | 
N[C@@H](Cc1ccccc1)C(=O)N[C@@H](CC(=O)O)C(=O)N1CCC[C@H]1C(=O)O [FDP] (H-Phe-Asp-Pro-OH; N-terminus and C-terminus assumed) | 1.98 ± 0.6 | 
N[C@@H](Cc1ccccc1)C(=O)N[C@@H](CO)C(=O)N1CCC[C@H]1C(=O)O [FSP] (H-Phe-Ser-Pro-OH; N-terminus and C-terminus assumed) | 2.3 ± 0.13 | 
C[C@H](NC(=O)[C@H](C)NC(=O)[C@@H]1CCCN1)C(=O)O [PAA] (H-Pro-Ala-Ala-OH; N-terminus and C-terminus assumed) | 2.4 ± 0.34 | 
C[C@H](NC(=O)[C@@H]1CCCN1)C(=O)N1CCC[C@H]1C(=O)O [PAP] (H-Pro-Ala-Pro-OH; N-terminus and C-terminus assumed) | 3.17 ± 0.14 | 
C[C@H](NC(=O)[C@@H]1CCCN1C(=O)[C@@H](CC(=O)O)NC(=O)[C@@H](N)Cc1ccc(O)cc1)C(=O)N1CCC[C@H]1C(=O)O [Y(D)DPAP] (H-Y[dD]PAP-OH; N-terminus and C-terminus assumed) | 1.2 ± 0.3 | 
N[C@@H](Cc1ccc(O)cc1)C(=O)N[C@H](CC(=O)O)C(=O)N1CCC[C@H]1C(=O)O [Y(D)DP] (H-Tyr-[dD]-Pro-OH; N-terminus and C-terminus assumed) | 0.28 ± 0.01 | 
C[C@H](NC(=O)[C@@H](N)Cc1ccc(O)cc1)C(=O)N1CCC[C@H]1C(=O)O [YAP] (H-Tyr-Ala-Pro-OH; N-terminus and C-terminus assumed) | 2.3 ± 0.5 | 
C[C@H](NC(=O)[C@H](CC(=O)O)NC(=O)[C@@H](N)Cc1ccc(O)cc1)C(=O)O [YDA] (H-Tyr-Asp-Ala-OH; N-terminus and C-terminus assumed) | 1.6 ± 0.13 | 
N[C@@H](Cc1ccc(O)cc1)C(=O)N[C@@H](CC(=O)O)C(=O)N[C@@H](Cc1ccccc1)C(=O)O [YDF] (H-Tyr-Asp-Phe-OH; N-terminus and C-terminus assumed) | 0.97 ± 0.11 | 
N[C@@H](Cc1ccc(O)cc1)C(=O)N[C@@H](CC(=O)O)C(=O)NCC(=O)O [YDG] (H-Tyr-Asp-Gly-OH; N-terminus and C-terminus assumed) | 0.95 ± 0.11 | 
N=C(N)NCCC[C@H](NC(=O)[C@@H]1CCCN1C(=O)[C@H](CC(=O)O)NC(=O)[C@@H](N)Cc1ccc(O)cc1)C(=O)O [YDPR] (H-YDPR-OH; N-terminus and C-terminus assumed) |  | LC50 (Aedes aegypti larvae [2]): 0.24 ± 0.026 mM
N[C@@H](Cc1ccc(O)cc1)C(=O)N[C@@H](CC(=O)O)C(=O)N1CCC[C@H]1C(=O)O [YDP] (H-Tyr-Asp-Pro-OH; N-terminus and C-terminus assumed) | 2.3 ± 0.4 | 
N[C@@H](Cc1ccc(O)cc1)C(=O)N[C@@H](CC(=O)O)C(=O)O [YD] (H-Tyr-Asp-OH; N-terminus and C-terminus assumed) | 1.24 ± 0.06 | 
N[C@@H](Cc1ccc(O)cc1)C(=O)N[C@@H](CO)C(=O)N[C@@H](Cc1ccccc1)C(=O)O [YSF] (H-Tyr-Ser-Phe-OH; N-terminus and C-terminus assumed) | 1.08 ± 0.12 | 

Compound | LD50 mM ± S.E.M. (Aedes aegypti larvae [1]) [mM] | further results
ADPAP [ADPAP] | 2.0 ± 0.36 | 
DPARDPARDPARDPAR [(DPAR)4] |  | Inhibition (% ± S.E.M.) of trypsin biosynthesis (trypsin biosynthesis; 0.5 μg/injection): 3 ± 0.3%; Inhibition (% ± S.E.M.) of trypsin biosynthesis (trypsin biosynthesis; 1 μg/injection): 35 ± 7%; Inhibition (% ± S.E.M.) of trypsin biosynthesis (trypsin biosynthesis; 10 μg/injection): 58 ± 36%; LC50 (Aedes aegypti larvae [2]): 0.048 ± 0.002 mM
FDPAP [FDPAP] | 0.37 ± 0.15 | 
MPDYPPPPP [MPDYP5] | >3.0 | 
YAPAP [YAPAP] | 0.54 ± 0.13 | 
YDAAP [YDAAP] | 1.0 ± 0.18 | 
YDFAP [YDFAP] | 0.74 ± 0.13 | 
YDLAP [YDLAP] | 0.6 ± 0.05 | 
YDPAA [YDPAA] | 1.6 ± 0.13 | 
YDPAF [YDPAF] | 0.33 ± 0.2 | 
YDPAFR [YDPAFR] |  | Inhibition (% ± S.E.M.) of trypsin biosynthesis (trypsin biosynthesis; 10 μg/injection): 0 ± 0%; LC50 (Aedes aegypti larvae [2]): 0.15 ± 0.023 mM
YDPAL [YDPAL] | 0.52 ± 0.03 | 
YDPAP [YDPAP, reference compound] | 1.64 ± 0.03 | 
YDPAPPPPPP [YDPAP6, reference compound] | 0.2 ± 0.02 | Inhibition (% ± S.E.M.) of trypsin biosynthesis (trypsin biosynthesis; 0.25 μg/injection): 19.5 ± 0.7%; Inhibition (% ± S.E.M.) of trypsin biosynthesis (trypsin biosynthesis; 0.5 μg/injection): 11 ± 1%; Inhibition (% ± S.E.M.) of trypsin biosynthesis (trypsin biosynthesis; 1 μg/injection): 25 ± 2%; Inhibition (% ± S.E.M.) of trypsin biosynthesis (trypsin biosynthesis; 10 μg/injection): 56%; LC50 (Aedes aegypti larvae [2]): 0.2 ± 0.02 mM
YDPAPPPPPPR [YDPAP6R] |  | LC50 (Aedes aegypti larvae [2]): > 71.6 mM
YDPAPR [YDPAPR] |  | Inhibition (% ± S.E.M.) of trypsin biosynthesis (trypsin biosynthesis; 0.25 μg/injection): 11 ± 1%; Inhibition (% ± S.E.M.) of trypsin biosynthesis (trypsin biosynthesis; 0.5 μg/injection): 14 ± 1%; Inhibition (% ± S.E.M.) of trypsin biosynthesis (trypsin biosynthesis; 1 μg/injection): 31.5 ± 2%; Inhibition (% ± S.E.M.) of trypsin biosynthesis (trypsin biosynthesis; 10 μg/injection): 53 ± 25%; LC50 (Aedes aegypti larvae [2]): 0.24 ± 0.02 mM
YDPAR [YDPAR] |  | Inhibition (% ± S.E.M.) of trypsin biosynthesis (trypsin biosynthesis; 0.5 μg/injection): 1 ± 0.07%; Inhibition (% ± S.E.M.) of trypsin biosynthesis (trypsin biosynthesis; 1 μg/injection): 39 ± 2%; Inhibition (% ± S.E.M.) of trypsin biosynthesis (trypsin biosynthesis; 10 μg/injection): 33.5 ± 9%; LC50 (Aedes aegypti larvae [2]): 0.12 ± 0.07 mM
YDPFP [YDPFP] | 1.7 ± 0.4 | 
YDPGP [YDPGP] | 1.1 ± 0.18 | 
YDPLP [YDPLP] | 1.5 ± 0.04 | 
YEPAP [YEPAP] | 0.35 ± 0.02 | 
YFPAP [YFPAP] | 0.64 ± 0.03 | 
YNPAP [YNPAP] | 0.55 ± 0.03 | 
YSPAP [YSPAP] | 1.4 ± 0.03 | 
